In general, Ki refers to the equilibrium dissociation constant of an inhibitor or competing ligand from its target. A high value points to a looser hold on the target.

The text below walks through data of BindingDB's records for doi:10.1021/jm990412m (University of Queensland, 2000).

Molecules are shown by their SMILES. Residues, ends and D or L forms follow the SMILES beside them.

The experiment can be described thus: Binding affinity against Protease.

Compound `CSCC[C@H](NC(=O)[C@H](CCC(=O)O)NC(=O)[C@H](CC(=O)O)NC(C)=O)C(=O)N[C@@H](CCC(=O)O)C(=O)N[C@@H](CCC(=O)O)C(=O)N[C@@H](CS)C(=O)O` [AcAsp-Glu-Met-Glu-Glu-Cys] (Ac-DEMEEC-OH) had an inhibition constant (Ki) of 600 nM.
